The experiment deals with YbiB (Escherichia coli, UniProt P30177). As to the kind of experiment: biochemical. The experiment is classed as binding.

No end group written: not given here.

Sequence of YbiB (P30177 whole entry): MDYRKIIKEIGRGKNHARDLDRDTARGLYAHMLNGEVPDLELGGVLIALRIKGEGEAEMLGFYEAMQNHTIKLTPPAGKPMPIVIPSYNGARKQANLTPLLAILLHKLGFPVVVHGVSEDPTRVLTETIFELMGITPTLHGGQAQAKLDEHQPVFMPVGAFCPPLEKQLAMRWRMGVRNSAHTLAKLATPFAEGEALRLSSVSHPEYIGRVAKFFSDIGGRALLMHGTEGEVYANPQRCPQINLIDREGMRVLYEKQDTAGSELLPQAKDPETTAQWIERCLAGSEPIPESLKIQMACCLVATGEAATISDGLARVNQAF

On to LEEIAEEDDEDADDDADEDD [peptide4-AA], for which the Kd is roughly 10 µM.

The compound `CC[C@H](C)[C@H](NC(=O)[C@H](Cc1ccccc1)NC(=O)[C@H](CCC(=O)O)NC(=O)[C@@H](NC(=O)CNC(=O)[C@H](CCC(=O)O)NC(=O)[C@H](CCC(=O)O)NC(=O)[C@H](CC(=O)O)NC(=O)[C@H](CC(=O)O)NC(=O)[C@H](CCC(=O)O)NC(=O)[C@H](CC(=O)O)NC(=O)[C@H](Cc1c[nH]c2ccccc12)NC(=O)[C@H](CC(=O)O)NC(=O)[C@H](CC(=O)O)NC(=O)[C@H](CC(=O)O)NC(=O)[C@H](Cc1c[nH]c2ccccc12)NC(=O)[C@@H](N)CC(=O)O)C(C)C)C(=O)N[C@@H](Cc1ccc(O)cc1)C(=O)N[C@@H](CCCCN)C(=O)N[C@@H](CCCNC(=N)N)C(=O)O` [peptide5] returned a stoichiometry n (ITC, Figure 3C isotherm, single binding event) of 0.937 ± 0.008.

What is called Kd is a measure of binding affinity in units of concentration.

(Values after publication PMC10123104 (Nucleic Acids Research, 2023).)
